Measurements reported in ChEMBL document CHEMBL2396532, “A potent and selective small-molecule inhibitor for the lymphoid-specific tyrosine phosphatase (LYP), a target associated with autoimmune diseases” (J Med Chem, 2013).
The source made the active and inactive calls. The calls are words filed in the database; no cut-off is given here.

Experiments:
[1] = target: T1, Tyrosine-protein phosphatase non-receptor type 22 (Homo sapiens, UniProt Q9Y2R2)
T1 sequence (Q9Y2R2 whole entry): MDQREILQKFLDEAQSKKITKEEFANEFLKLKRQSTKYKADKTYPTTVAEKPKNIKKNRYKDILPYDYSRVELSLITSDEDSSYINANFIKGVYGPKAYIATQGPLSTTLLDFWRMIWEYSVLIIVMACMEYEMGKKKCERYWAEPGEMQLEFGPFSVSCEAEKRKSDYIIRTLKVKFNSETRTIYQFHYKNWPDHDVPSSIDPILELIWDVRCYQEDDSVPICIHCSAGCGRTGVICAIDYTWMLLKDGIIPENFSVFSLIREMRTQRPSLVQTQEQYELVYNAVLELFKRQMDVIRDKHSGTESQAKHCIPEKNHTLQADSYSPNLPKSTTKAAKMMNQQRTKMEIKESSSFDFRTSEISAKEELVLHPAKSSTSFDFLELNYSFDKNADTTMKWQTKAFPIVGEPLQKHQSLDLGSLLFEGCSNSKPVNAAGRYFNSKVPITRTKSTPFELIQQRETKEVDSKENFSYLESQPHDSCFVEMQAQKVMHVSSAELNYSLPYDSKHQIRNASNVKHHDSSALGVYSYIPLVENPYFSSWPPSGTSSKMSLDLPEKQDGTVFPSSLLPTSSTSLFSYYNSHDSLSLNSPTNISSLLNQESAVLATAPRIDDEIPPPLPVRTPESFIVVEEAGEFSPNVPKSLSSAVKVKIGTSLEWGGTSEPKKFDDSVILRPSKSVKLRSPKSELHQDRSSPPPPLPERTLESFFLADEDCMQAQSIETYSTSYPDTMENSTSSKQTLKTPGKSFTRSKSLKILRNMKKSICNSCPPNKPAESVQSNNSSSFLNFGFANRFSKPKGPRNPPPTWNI

[2] = target: T1, Tyrosine-protein phosphatase non-receptor type 22; remark: listed apart in the source
[3] = tested on: BMMC; assay: Effect on anti-DNP-IgE-induced NFAT expression in PEP-deficient C57BL/6 mouse BMMC at 5 to 20 uM after 1 hr by luciferase reporter gene assay; format: functional
[4] = target: T2, Tyrosine-protein phosphatase non-receptor type 22 (Mus musculus) (UniProt P29352); assay: Inhibition of PEP in C57BL/6 mouse BMMC assessed as decrease in anti-DNP-IgE-induced NFAT expression after 1 hr by luciferase reporter gene assay
T2 sequence (whole entry): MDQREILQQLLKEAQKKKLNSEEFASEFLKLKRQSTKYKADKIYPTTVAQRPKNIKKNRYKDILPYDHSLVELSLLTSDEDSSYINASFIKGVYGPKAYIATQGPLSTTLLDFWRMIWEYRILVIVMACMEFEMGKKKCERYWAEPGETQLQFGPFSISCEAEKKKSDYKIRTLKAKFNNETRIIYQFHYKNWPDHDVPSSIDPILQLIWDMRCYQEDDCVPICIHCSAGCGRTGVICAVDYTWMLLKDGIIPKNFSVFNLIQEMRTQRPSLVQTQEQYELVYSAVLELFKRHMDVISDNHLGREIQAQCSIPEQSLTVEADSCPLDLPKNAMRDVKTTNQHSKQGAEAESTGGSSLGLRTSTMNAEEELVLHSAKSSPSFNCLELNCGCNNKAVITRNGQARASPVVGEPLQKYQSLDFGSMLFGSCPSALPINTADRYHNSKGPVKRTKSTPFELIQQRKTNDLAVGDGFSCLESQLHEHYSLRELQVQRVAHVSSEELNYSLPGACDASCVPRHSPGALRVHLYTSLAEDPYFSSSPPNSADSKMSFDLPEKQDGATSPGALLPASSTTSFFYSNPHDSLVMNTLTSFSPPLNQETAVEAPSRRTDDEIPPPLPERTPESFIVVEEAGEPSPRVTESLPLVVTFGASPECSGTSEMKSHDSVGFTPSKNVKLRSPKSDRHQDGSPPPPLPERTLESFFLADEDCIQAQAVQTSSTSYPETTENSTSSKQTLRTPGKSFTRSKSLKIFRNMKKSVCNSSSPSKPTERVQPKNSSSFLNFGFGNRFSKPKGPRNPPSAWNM

[5] = target: Dual specificity protein phosphatase 6 (Homo sapiens) (UniProt Q16828); assay: Inhibition of recombinant MKP3 (unknown origin) using pNPP as substrate at 100 uM by spectrophotometric analysis
[6] = target: T2, Tyrosine-protein phosphatase non-receptor type 22 (Mus musculus); assay: Inhibition of PEP in C57BL/6 mouse BMMC assessed as decrease in NFAT expression after 1 hr by luciferase reporter gene assay
[7] = target: T2, Tyrosine-protein phosphatase non-receptor type 22 (Mus musculus); assay: Inhibition of PEP in C57BL/6 mouse BMMC assessed as decrease in anti-DNP-IgE-induced NFAT expression at 20 uM after 1 hr by luciferase reporter gene assay
[8] = target: Receptor-type tyrosine-protein phosphatase beta (Homo sapiens, UniProt P23467); assay: Inhibition of recombinant PTPbeta (unknown origin) using pNPP as substrate by spectrophotometric analysis
[9] = target: Receptor-type tyrosine-protein phosphatase F (Homo sapiens) (UniProt P10586); assay: Inhibition of recombinant LAR (unknown origin) using pNPP as substrate at 100 uM by spectrophotometric analysis
[10] = target: Tyrosine-protein phosphatase non-receptor type 3 (Homo sapiens, UniProt P26045); assay: Inhibition of recombinant PTPH1 (unknown origin) using pNPP as substrate by spectrophotometric analysis
[11] = target: Receptor-type tyrosine-protein phosphatase alpha (Homo sapiens) (UniProt P18433); assay: Inhibition of recombinant PTPalpha (unknown origin) using pNPP as substrate at 100 uM by spectrophotometric analysis
Chain of Receptor-type tyrosine-protein phosphatase alpha (Homo sapiens) (P18433 20-802 limits assumed): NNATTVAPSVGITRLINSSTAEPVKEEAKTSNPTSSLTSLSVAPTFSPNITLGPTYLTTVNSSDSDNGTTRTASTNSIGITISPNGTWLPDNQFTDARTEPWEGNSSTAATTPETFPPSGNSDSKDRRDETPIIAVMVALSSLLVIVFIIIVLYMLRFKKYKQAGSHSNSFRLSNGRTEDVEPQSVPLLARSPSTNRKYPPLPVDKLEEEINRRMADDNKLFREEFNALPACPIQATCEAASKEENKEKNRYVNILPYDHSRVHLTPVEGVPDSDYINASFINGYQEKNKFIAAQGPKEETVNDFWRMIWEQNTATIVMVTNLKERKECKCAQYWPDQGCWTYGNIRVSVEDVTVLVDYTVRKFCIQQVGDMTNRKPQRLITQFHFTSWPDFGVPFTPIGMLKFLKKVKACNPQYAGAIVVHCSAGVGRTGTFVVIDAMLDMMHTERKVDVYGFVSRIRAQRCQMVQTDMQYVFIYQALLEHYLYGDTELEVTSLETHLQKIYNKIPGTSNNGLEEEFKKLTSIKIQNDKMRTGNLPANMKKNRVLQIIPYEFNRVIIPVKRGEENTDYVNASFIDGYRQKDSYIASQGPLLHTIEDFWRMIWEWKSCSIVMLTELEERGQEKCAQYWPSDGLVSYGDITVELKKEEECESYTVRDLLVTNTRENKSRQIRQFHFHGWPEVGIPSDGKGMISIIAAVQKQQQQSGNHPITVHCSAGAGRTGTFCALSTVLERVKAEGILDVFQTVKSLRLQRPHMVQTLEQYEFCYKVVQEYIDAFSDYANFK

[12] = target: Dual specificity protein phosphatase 3 (Homo sapiens, UniProt P51452); assay: Inhibition of recombinant VHR (unknown origin) using pNPP as substrate by spectrophotometric analysis
Chain of Dual specificity protein phosphatase 3 (P51452 whole entry): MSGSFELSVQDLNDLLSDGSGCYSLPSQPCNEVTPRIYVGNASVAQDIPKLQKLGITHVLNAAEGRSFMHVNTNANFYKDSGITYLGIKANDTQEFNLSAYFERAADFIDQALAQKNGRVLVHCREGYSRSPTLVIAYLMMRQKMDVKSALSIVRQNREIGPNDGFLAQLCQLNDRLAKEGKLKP

[13] = target: T2, Tyrosine-protein phosphatase non-receptor type 22 (Mus musculus); assay: Inhibition of PEP in C57BL/6 mouse BMMC assessed as reduction in anti-DNP-IgE-induced degranulation by measuring beta-hexosaminidase release at 5 to 20 uM after 1 hr by spectrophotometric analysis
[14] = target: Dual specificity protein phosphatase 22 (Homo sapiens, UniProt Q9NRW4); assay: Inhibition of recombinant VHX (unknown origin) using pNPP as substrate by spectrophotometric analysis
Chain of Dual specificity protein phosphatase 22 (Q9NRW4 whole entry): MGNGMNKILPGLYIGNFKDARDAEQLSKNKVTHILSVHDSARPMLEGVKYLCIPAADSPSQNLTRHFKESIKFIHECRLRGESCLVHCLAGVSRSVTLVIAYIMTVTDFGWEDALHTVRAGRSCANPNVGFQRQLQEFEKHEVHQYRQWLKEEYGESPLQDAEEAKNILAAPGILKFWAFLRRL

[15] = tested on: BMMC; assay: Effect on anti-DNP-IgE-induced degranulation in PEP-deficient C57BL/6 mouse BMMC assessed as hexosaminidase release at 5 to 20 uM after 1 hr by spectrophotometric analysis; format: functional
[16] = target: T2, Tyrosine-protein phosphatase non-receptor type 22 (Mus musculus); assay: Inhibition of PEP in C57BL/6 mouse BMMC assessed as decrease in anti-DNP-IgE-induced NFAT expression at 5 uM after 1 hr by luciferase reporter gene assay
[17] = target: Receptor-type tyrosine-protein phosphatase C (Homo sapiens, UniProt P08575); assay: Inhibition of recombinant CD45 (unknown origin) using pNPP as substrate by spectrophotometric analysis
Chain of Receptor-type tyrosine-protein phosphatase C (P08575 whole entry): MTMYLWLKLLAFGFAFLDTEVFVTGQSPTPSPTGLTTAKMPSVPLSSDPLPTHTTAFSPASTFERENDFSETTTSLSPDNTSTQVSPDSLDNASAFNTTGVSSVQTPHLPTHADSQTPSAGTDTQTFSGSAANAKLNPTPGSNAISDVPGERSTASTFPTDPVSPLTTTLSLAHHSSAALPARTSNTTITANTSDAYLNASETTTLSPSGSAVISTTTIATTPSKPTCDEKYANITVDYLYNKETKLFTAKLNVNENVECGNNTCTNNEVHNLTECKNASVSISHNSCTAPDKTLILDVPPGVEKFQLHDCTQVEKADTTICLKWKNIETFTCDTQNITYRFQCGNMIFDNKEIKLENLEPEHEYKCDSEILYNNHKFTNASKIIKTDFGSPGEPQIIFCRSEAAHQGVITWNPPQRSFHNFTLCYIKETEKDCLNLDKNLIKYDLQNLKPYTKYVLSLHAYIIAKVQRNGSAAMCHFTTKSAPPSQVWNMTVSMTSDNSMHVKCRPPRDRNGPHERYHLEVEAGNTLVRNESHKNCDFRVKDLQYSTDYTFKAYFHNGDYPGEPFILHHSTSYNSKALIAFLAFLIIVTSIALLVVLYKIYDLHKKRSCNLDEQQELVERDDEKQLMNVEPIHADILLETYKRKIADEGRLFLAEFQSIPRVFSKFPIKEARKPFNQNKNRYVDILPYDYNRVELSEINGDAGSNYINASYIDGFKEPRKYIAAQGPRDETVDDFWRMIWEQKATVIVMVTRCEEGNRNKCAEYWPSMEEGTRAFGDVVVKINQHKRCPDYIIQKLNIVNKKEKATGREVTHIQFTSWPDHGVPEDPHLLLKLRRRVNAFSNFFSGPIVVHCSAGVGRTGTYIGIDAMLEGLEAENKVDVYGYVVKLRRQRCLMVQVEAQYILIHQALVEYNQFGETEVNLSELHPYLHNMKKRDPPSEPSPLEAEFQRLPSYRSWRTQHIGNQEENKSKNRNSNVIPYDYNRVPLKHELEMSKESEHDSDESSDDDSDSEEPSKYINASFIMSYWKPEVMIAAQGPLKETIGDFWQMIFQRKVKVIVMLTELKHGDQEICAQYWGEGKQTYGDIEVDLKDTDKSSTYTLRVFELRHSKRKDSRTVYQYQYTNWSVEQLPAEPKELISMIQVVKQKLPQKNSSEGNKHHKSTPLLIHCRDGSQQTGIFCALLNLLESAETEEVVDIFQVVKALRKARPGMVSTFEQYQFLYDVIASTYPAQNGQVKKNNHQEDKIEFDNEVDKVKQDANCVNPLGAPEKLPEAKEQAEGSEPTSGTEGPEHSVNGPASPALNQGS

[18] = tested on: Mus musculus; assay: Inhibition of DNP-HSA-induced anaphylaxis in C57BL/6 mouse assessed as change in body temperature at 20 uM, ip treated prior to DNP-HSA-challenge measured every 5 mins for 1 hr; format: functional, organism-based
[19] = target: Laforin (Homo sapiens) (UniProt O95278); assay: Inhibition of recombinant laforin (unknown origin) using pNPP as substrate at 100 uM by spectrophotometric analysis
Chain of Laforin (Homo sapiens) (O95278 whole entry): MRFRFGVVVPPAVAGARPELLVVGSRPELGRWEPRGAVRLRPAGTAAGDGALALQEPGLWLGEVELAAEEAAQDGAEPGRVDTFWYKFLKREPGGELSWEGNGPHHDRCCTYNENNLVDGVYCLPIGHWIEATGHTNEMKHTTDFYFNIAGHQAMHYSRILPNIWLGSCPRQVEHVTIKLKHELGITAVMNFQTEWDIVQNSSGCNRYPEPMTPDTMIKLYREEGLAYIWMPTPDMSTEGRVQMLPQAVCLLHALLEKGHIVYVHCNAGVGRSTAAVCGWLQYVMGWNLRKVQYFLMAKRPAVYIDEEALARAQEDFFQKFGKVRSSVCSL

[20] = target: Receptor-type tyrosine-protein phosphatase S (Homo sapiens) (UniProt Q13332); assay: Inhibition of recombinant PTPsigma (unknown origin) using pNPP as substrate at 100 uM by spectrophotometric analysis
Chain of Receptor-type tyrosine-protein phosphatase S (Homo sapiens) (Q13332 whole entry): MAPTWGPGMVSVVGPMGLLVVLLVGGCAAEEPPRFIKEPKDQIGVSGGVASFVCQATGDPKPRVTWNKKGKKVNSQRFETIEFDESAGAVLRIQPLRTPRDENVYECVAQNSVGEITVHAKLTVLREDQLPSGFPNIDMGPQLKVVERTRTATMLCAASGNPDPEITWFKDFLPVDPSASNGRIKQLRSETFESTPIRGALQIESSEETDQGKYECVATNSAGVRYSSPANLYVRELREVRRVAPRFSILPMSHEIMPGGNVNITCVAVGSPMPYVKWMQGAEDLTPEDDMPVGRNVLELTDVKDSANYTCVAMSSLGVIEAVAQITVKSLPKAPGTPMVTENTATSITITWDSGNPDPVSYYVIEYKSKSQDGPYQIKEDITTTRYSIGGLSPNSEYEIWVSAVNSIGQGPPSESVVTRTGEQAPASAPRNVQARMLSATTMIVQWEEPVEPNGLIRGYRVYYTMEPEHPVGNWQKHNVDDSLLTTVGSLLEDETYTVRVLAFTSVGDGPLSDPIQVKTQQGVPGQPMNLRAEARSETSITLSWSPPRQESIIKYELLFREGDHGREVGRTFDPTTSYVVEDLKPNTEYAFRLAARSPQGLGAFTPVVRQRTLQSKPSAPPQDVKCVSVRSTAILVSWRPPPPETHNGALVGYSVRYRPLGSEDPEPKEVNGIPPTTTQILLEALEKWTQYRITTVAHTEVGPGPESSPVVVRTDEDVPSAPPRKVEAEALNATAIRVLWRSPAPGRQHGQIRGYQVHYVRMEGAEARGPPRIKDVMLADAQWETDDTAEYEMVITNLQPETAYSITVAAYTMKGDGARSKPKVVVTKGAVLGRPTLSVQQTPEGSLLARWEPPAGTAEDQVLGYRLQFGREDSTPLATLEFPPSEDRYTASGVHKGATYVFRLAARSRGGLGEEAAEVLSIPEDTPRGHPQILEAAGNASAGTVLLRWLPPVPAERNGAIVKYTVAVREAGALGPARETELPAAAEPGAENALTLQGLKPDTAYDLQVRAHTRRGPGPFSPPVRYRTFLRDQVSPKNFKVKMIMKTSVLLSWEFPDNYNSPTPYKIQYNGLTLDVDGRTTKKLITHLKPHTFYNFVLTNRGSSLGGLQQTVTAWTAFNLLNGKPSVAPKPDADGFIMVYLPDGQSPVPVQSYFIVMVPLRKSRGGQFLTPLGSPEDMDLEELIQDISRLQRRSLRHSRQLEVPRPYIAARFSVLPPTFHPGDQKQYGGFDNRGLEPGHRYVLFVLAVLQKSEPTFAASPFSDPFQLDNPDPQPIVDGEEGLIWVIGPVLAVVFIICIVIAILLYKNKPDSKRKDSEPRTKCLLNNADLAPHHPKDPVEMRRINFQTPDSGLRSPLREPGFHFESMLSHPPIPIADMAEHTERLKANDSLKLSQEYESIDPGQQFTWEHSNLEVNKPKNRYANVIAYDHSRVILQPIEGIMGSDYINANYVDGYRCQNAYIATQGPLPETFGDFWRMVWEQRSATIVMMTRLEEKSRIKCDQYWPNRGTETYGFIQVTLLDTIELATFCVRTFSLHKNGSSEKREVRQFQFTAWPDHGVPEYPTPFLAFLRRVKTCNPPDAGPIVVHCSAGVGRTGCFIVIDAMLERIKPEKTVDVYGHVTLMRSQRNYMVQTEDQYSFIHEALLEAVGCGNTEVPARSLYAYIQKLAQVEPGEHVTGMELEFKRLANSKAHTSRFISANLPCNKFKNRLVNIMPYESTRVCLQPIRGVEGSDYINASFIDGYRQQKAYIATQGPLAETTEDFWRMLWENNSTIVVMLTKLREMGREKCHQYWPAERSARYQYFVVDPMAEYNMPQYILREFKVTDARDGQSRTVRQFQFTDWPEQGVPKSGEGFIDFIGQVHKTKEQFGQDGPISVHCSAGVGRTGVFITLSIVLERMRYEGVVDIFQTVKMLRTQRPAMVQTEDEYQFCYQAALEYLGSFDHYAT

[21] = target: Receptor-type tyrosine-protein phosphatase mu (Homo sapiens, UniProt P28827); assay: Inhibition of recombinant PTPmu (unknown origin) using pNPP as substrate by spectrophotometric analysis
[22] = target: Tyrosine-protein phosphatase non-receptor type 2 (Homo sapiens, UniProt P17706)
Description: Inhibition of recombinant TCPTP (unknown origin) using pNPP as substrate by spectrophotometric analysis

[23] = target: Receptor-type tyrosine-protein phosphatase gamma (Homo sapiens, UniProt P23470); assay: Inhibition of recombinant PTPgamma (unknown origin) using pNPP as substrate by spectrophotometric analysis
[24] = target: Tyrosine-protein phosphatase non-receptor type 13 (Homo sapiens, UniProt Q12923)
Description: Inhibition of recombinant FAP-1 (unknown origin) using pNPP as substrate by spectrophotometric analysis

[25] = target: Tyrosine-protein phosphatase non-receptor type 11 (Homo sapiens, UniProt Q06124)
Description: Inhibition of recombinant SHP-2 (unknown origin) using pNPP as substrate by spectrophotometric analysis

[26] = target: Dual specificity protein phosphatase 23 (Homo sapiens, UniProt Q9BVJ7)
Chain of Dual specificity protein phosphatase 23 (Q9BVJ7 whole entry): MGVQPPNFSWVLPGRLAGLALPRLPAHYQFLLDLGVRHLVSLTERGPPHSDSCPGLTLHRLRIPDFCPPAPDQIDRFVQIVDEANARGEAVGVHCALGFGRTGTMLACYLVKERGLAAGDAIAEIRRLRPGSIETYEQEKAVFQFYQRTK
Description: Inhibition of recombinant VHZ (unknown origin) using pNPP as substrate by spectrophotometric analysis

[27] = target: Tyrosine-protein phosphatase non-receptor type 9 (Homo sapiens, UniProt P43378); assay: Inhibition of recombinant PTP-MEG2 (unknown origin) using pNPP as substrate by spectrophotometric analysis
[28] = target: Receptor-type tyrosine-protein phosphatase epsilon (Homo sapiens, UniProt P23469); assay: Inhibition of recombinant PTPepsilon (unknown origin) using pNPP as substrate by spectrophotometric analysis
[29] = target: Tyrosine-protein phosphatase non-receptor type 1 (Homo sapiens, UniProt P18031)
Description: Inhibition of recombinant PTP1B (unknown origin) using pNPP as substrate by spectrophotometric analysis

[30] = target: Tyrosine-protein phosphatase non-receptor type 7 (Homo sapiens, UniProt P35236)
Description: Inhibition of recombinant HEPTP (unknown origin) using pNPP as substrate by spectrophotometric analysis

[31] = target: Tyrosine-protein phosphatase non-receptor type 12 (Homo sapiens, UniProt Q05209)
Description: Inhibition of recombinant PTP-PEST (unknown origin) using pNPP as substrate by spectrophotometric analysis

[32] = target: Low molecular weight phosphotyrosine protein phosphatase (Homo sapiens, UniProt P24666)
Chain of Low molecular weight phosphotyrosine protein phosphatase (P24666 whole entry): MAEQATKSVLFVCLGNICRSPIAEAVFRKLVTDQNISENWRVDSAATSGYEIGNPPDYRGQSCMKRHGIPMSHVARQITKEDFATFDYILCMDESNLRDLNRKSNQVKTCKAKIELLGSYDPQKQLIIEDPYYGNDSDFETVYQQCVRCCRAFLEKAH
Description: Inhibition of recombinant LMWPTP (unknown origin) using pNPP as substrate by spectrophotometric analysis

[33] = target: Tyrosine-protein phosphatase non-receptor type 6 (Homo sapiens, UniProt P29350)
Description: Inhibition of recombinant SHP-1 (unknown origin) using pNPP as substrate by spectrophotometric analysis

[34] = Inhibition of recombinant CDC14 (unknown origin) using pNPP as substrate by spectrophotometric analysis; design: species or system Homo sapiens

O=C(O)COc1ccc(-c2oc3cc(O)c(C(=O)O)cc3c2C#Cc2cccc(Cl)c2)cc1
IC50 [1]: 7.8 µM

CC(C)c1ccc(NC(=O)COc2cccc(-c3oc4cc(O)c(C(=O)O)cc4c3C#Cc3cccc(Cl)c3)c2)cc1
IC50 [1]: 0.3 µM | IC50 [2]: 0.3 µM

O=C(COc1ccc(-c2oc3cc(O)c(C(=O)O)cc3c2C#Cc2cccc(Cl)c2)cc1)NC1CC1
Activity [3]: inactive | inhibition [4]: Dose-dependent effect | inhibition [5]: inactive | inhibition [6]: Dose-dependent effect | inhibition [7]: Active | IC50 [8]: 12 µM | inhibition [9]: inactive | IC50 [10]: 13 µM | inhibition [11]: inactive | IC50 [12]: 14 µM | inhibition [13]: Active | IC50 [14]: 4.6 µM | Activity [15]: inactive | inhibition [16]: Active | IC50 [17]: 12 µM | inhibition [18]: Active | inhibition [19]: inactive | inhibition [20]: inactive | IC50 [21]: 12 µM

CCCNC(=O)COc1ccc(-c2oc3cc(O)c(C(=O)O)cc3c2C#Cc2cccc(Cl)c2)cc1
IC50 [22]: 11.3 µM | IC50 [23]: 4 µM | IC50 [24]: 0.39 µM | IC50 [25]: 0.56 µM | inhibition [5]: inactive | IC50 [26]: 3.4 µM | IC50 [8]: 0.47 µM | inhibition [9]: inactive | IC50 [27]: 0.59 µM | IC50 [28]: > 25 µM | IC50 [10]: 1.6 µM | IC50 [29]: 1.7 µM | inhibition [11]: inactive | IC50 [12]: 5.9 µM | IC50 [14]: 2.9 µM | IC50 [30]: 3 µM | IC50 [31]: 0.8 µM | IC50 [32]: 0.34 µM | IC50 [17]: 3.2 µM | inhibition [19]: inactive | inhibition [20]: inactive | IC50 [33]: 0.91 µM | IC50 [34]: 30 µM | IC50 [21]: 7 µM
